We go through three molecules from paper PMC8006935, “Study of Combinatorial Drug Synergy of Novel Acridone Derivatives With Temozolomide Using in-silico and in-vitro Methods in the Treatment of Drug-Resistant Glioma” (Frontiers in Oncology, 2021).

Molecules are shown by their SMILES.

Data set [1] is described as follows: pKa by UV-Vis spectrophotometer. The data set is classed as physicochemical. As to the method: Characterization of acridone derivatives AC2, AC7, and AC26 were carried out by using all the chemicals of analytical grade. Hydrochloric acid and sodium hydroxide were procured from Sisco Research Lab Pvt. Ltd (Mumbai, India). Potassium dihydrogen orthophosphate, methanol and ortho-phosphoric acid (85% pure) was received from Loba Chemie Pvt. Ltd. (Mumbai, India). Sodium chloride was received from SD Fine-Chem Limited (Mumbai, India). Milli-pore water was used throughout the study. Chemical information like the molecular weight of compounds was determined by obtaining ESI-MS spectroscopy using methanol as solvent. pH calculated by using pH analyzer (Lab India) and PKa determined by using UV-Vis spectrophotometer (Shimadzu, Japan). Melting point was calculated by Digital Melting point apparatus (Veego India). Lipophilicity was determined by using software like Chem Draw 15 and ALGOPS 2.1 ([16]). In order to determine the Blood Brain Barrier (BBB) permeability of the compounds, we have used Online BBB Predictor (https://www.cbligand.org/BBB/predictor.php) using SVM Machine Learning algorithm and PubChem as the fingerprint ([17]).

A short description of data set [2]: Sulforhodamine B assay, Vero control cells. The data set is classed as cell-based. To be noted: African green monkey, Vero cells (normal kidney epithelial cells), SRB, read-out: Vero cell Line CC50. How it is done: In order to test the growth inhibition potential of the TMZ and Acridone derivatives on Glioma, the U-87 (Uppsala 87) Glioma cell lines and T-98 (Temozolomide resistant) Glioma cell lines were treated with Temozolomide (TMZ) and Acridone derivatives AC2, AC7, and AC26. The African Green Monkey Kidney Vero cell lines were used as control for the study. The Vero cell lines were obtained from the National Center for Cell Sciences (NCCS), Pune, while the U-87 and T-98 cell lines were carried in the lab of Dr. GJ Peters, Cancer Center Amsterdam (CCA), VU University Medical Center, Amsterdam, Netherlands. The Mycoplasma testing was done by using the Universal Mycoplasma Detection Kit (ATCC® 30-1012K™) every 6 months. The Vero cell lines have been used as control as they are normal kidney epithelial cells and are non-cancerous in nature. The Vero cell lines have been routinely used for testing cytotoxicity of small molecules by various researchers ([22], [23]). Also, in our previous study, Vero cell lines have been used for testing safety and efficacy of Acridone derivatives for Lung, Cervical, and Breast Cancer studies ([13]).
Cell viability was found using the Sulforhodamine B (SRB) assay to measure the cellular protein content which provides better sensitivity in comparison to MTT assay ([24]). Moreover, as this method is dependent on the property of the SRB dye, it acts by binding to proteins under slightly acidic conditions and can be exposed to basic conditions for its extraction. The resulting amount of bound dye is then utilized as a proxy for cell mass ([25]). This cell mass can then be extrapolated to measure cell growth.
Glioma cells were cultured in Gibco (RPMI 1640) complemented with 10% fetal calf serum (Gibco). The cultures were then treated with trypsin-EDTA in order to detach/separate the cells from their culture flasks. The quickly proliferating cells were harvested, counted and plated at suitable concentrations in 96-well microplates. These microplates were subsequently incubated for 24 h. After incubation, drug compounds were dissolved in the culture media and placed in 96 well plates in triplicates, which were again incubated at 37°C under 5% CO2 for 72 h. 72 h later, the plates were removed and the cells were treated with cold Trichloroacetic acid (TCA) to fix the cultures and. […] Thereafter, absorbance of the solution was measured at 540 nm utilizing a microplate reader. Absorbance readings (triplicate values) recorded were used to calculate percentage growth inhibition due to the effect of drugs using the following equations.
% Cell growth = Absorbance sample/Absorbance of control or untreated × 100 […]
The IC50 was calculated based on the log graph sheet which was developed in-house at the CCA, VU University Medical Center. […]
In general terms: The SRB assay estimates cell density from bound dye.

By pKa is commonly meant the negative logarithm of the acid dissociation constant. As usually defined, the CC50 is the concentration that lowers cell viability or growth by half. For `O=C(NN=Cc1ccccc1Cl)c1cccc2c(=O)c3ccccc3[nH]c12` [AC7, N'-(2-chlorobenzylidene)-9-oxo-9,10-dihydroacridine-4-carbohydrazide], the pKa in data set [1] came to 9.23. Moreover, in data set [2], the CC50 at 72 h worked out at 48.2 µM.

The molecule `O=C(NN=CC=Cc1ccccc1)c1cccc2c(=O)c3ccccc3[nH]c12` [AC2, 9-oxo-N'-(3-phenylallylidene)-9,10-dihydroacridine-4-carbohydrazide] showed a pKa in data set [1] of 8.03. The CC50 at 72 h in data set [2] worked out at 56.2 µM.

`CC(=NNC(=O)c1cccc2c(=O)c3ccccc3[nH]c12)c1ccccc1O` [AC26, N'(1-(2-hydroxyphenyl)ethylidene)-9-oxo-9,10-dihydroacridine-4-carbohydrazide]: the pKa in data set [1] came out at 6.52. Besides, in data set [2], the CC50 at 72 h worked out at 66.1 µM.
